Laboratory results as given in patent publication US20230000852A1, “Treatment of Dermal Cytokine Storm Syndromes” (Bridge Pharma, Inc., priority 2021, published 2023).
Counter-ions that a name gives are not always drawn.

Columns and labels:
[1] = test system: IL-1β; assay: PHA-induced IL-1β release from human leucocytes (buffy coats); type: cell-based; conditions: Leucocyte, 10 uM, 30 min pre-incubation, PHA 5 μg/ml 16 hours
Experimental: (§1) The objective of this study was to assess the ability of norketotifen to inhibit cytokine release from stimulated human leucocytes.
(§2) The study was conducted in two phases. The first phase included optimization of the test methodology and including dose-range finding studies, using buffy coats from 3 human donors, stimulated with phytohemagglutinin (PHA). Following optimization of the test conditions, a final protocol was issued. In the ensuing Main Study, white blood cells (buffy coats) from 5 healthy human donors were stimulated with PHA, 5 μg/ml. The concentrations of the test article and the duration of exposure were optimized to obtain acceptable dose-response ratios. Thus, the inhibitory effects of three concentrations of NK and one concentration of ketotifen were evaluated in the Main Study. The buffy coats containing white blood cells from 5 male human donors were resuspended in assay media and were pre-incubated for 30 min with either vehicle/saline, ketotifen 4.3 μg/ml (10 μM) and norketotifen 0.4 μg/ml, 4.1 μg/ml and 41 μg/ml (1.0; 10 and 100 μM). Following these preincubations, the white blood cells were stimulated for 16 hours with PHA, 5 μg/ml. The cell system supernatants were then harvested and stored frozen pending analyses.
(§3) The concentration of the test articles had to be high in this ex vivo study since the test kit used a high concentration of the agonist PHA (5 μg/ml) and a long exposure time (16 hrs).

[2] = test system: IL-6; assay: PHA-induced IL-6 release from human leucocytes (buffy coats); type: cell-based; conditions: Leucocyte, 10 uM, 30 min pre-incubation, PHA 5 μg/ml 16 hours
Experimental: as §1, §2, §3

[3] = test system: TNFα; assay: PHA-induced TNFα release from human leucocytes (buffy coats); type: cell-based; conditions: Leucocyte, 10 uM, 30 min pre-incubation, PHA 5 μg/ml 16 hours
Experimental: as §1, §2, §3

[4] = test system: IL-4; assay: PHA-induced IL-4 release from human leucocytes (buffy coats); type: cell-based; conditions: Leucocyte, 10 uM, 30 min pre-incubation, PHA 5 μg/ml 16 hours
Experimental: as §1, §2, §3

[5] = test system: IL-2; assay: PHA-induced IL-2 release from human leucocytes (buffy coats); type: cell-based; conditions: Leucocyte, 10 uM, 30 min pre-incubation, PHA 5 μg/ml 16 hours
Experimental: as §1, §2, §3

[6] = test system: IL-8; assay: PHA-induced IL-8 release from human leucocytes (buffy coats); type: cell-based; conditions: Leucocyte, 10 uM, 30 min pre-incubation, PHA 5 μg/ml 16 hours
Experimental: as §1, §2, §3

[7] = test system: IL-10; assay: PHA-induced IL-10 release from human leucocytes (buffy coats); type: cell-based; conditions: Leucocyte, 10 uM, 30 min pre-incubation, PHA 5 μg/ml 16 hours
Experimental: as §1, §2, §3

[8] = test system: IL-13; assay: PHA-induced IL-13 release from human leucocytes (buffy coats); type: cell-based; conditions: Leucocyte, 10 uM, 30 min pre-incubation, PHA 5 μg/ml 16 hours
Experimental: as §1, §2, §3

[9] = test system: INF-γ; assay: PHA-induced INF-γ release from human leucocytes (buffy coats); type: cell-based; conditions: Leucocyte, 10 uM, 30 min pre-incubation, PHA 5 μg/ml 16 hours
Experimental: as §1, §2, §3

[10] = test system: human leucocytes (buffy coats); assay: Cytokine and chemokine release from stimulated human leucocytes, overall; type: cell-based; conditions: PHA 5 μg/ml, 16 hours
Experimental: as §1
as §2, with “analyses. […]” for “analyses.”

[11] = test system: shaved skin of Gottingen minipigs; assay: Skin irritation study in Göttingen mini pigs; type: in vivo, Göttingen minipigs; conditions: dermal once daily for four consecutive days
Experimental: To assess possible skin irritation following repeated dermal application of racemic norketotifen as a hydrogen fumarate salt (NK-HF) to Gottingen Minipigs.
Standard creamy polyethylene-glycol (PEG400/PEG4000; herein called PEG) formulations containing 0% (vehicle control), 5% or 10% of RS-norketotifen hydrogen fumarate (NK-HF) were prepared and applied once daily for four consecutive days to three marked areas (3 inches×3 inches) of the shaved skin of Gottingen minipigs pigs (2M+2F, 7-8 months; 9.7-11.6 kg). The volumes used for each application were 3.5 mL). Four animals were used in this study. The number of animals was intended to satisfy regulatory guidelines, to meet general scientific principles and to meet Bridge Pharma's animal-sparing commitments. The vehicle and the test articles were applied once daily for four consecutive days, and erythema (redness), edema (swelling) and eschar (scab) were assessed by the Study Director, who personally assessed and scored the appearance of the skin before the daily cream applications and four hours thereafter on Days 1 through 4. Additional inspections and scorings were performed on Day 5, twenty-four hours after the last (Day 4) applications of the vehicle and test articles.

[12] = test system: IL31-induced (SC) pruritus; assay: IL-31-induced pruritus in mice; type: in vivo; conditions: for Pruritic Bouts Mean ± SEM: 10 mg/kg oral 60 minutes before murine IL31 1.0 μg/30 gram SC, counted for 120 min, N 8; for Protection: 10 mg/kg oral 60 minutes before murine IL31 SC, vs vehicle
Experimental: To determine if NK inhibits IL31-induced pruritus in mice. Studies have now been performed, using murine IL31 as a pruritogen. Mice were dosed orally with a test article exactly 60 minutes before murine IL31 at a dose of 1.0 μg/30 gram body weight was injected subcutaneously into a previously depilated area on the rostral part of the back of mice. IL31 was dissolved in phosphate buffered saline (PBS) with 0.1% bovine serum albumin (BSA). The injected volume was 0.1 ml/mouse. The bouts of scratching were counted for 120 min, starting 30 min after the injection of IL31. The bouts of scratching were counted by trained laboratory personnel who were unaware of the pretreatment of the animals. Oclacitinib (Apoquel®) is a Janus kinase inhibitor that is the worldwide market leader for oral treatment of atopic dermatitis in dogs.

[13] = Dermal and plasma concentrations of NK after oral dosing to dogs; type: in vivo; conditions: for AUC∞ Plasma / MRT Plasma / T1/2 Plasma / AUC∞ Skin / MRT Skin / T1/2 Skin: oral S-NK 8.0 mg/kg/day for 28 days, dogs (N = 5)
Experimental: The purpose was to determine drug concentrations and calculate pharmacokinetics in the skin and plasma of dogs during and following daily oral administration of S-NK-HF (the S-isomer of norketotifen hydrogen fumarate) for four weeks.
Five male beagle dogs, weighing 11.2-13.9 kg (2-4 years old) were included in the study. All animals were administered p.o. doses of the test article 8.0 mg/kg/day as a hydrogen fumarate salt, equal to 5.6 mg/kg/day of the free base. A single isomer of NK was used, since an objective of this study was also to assess the racemization of the NK isomers. The animals were dosed once daily for four weeks followed by daily observations and tissue sampling for an additional two-week washout period.
Multiple plasma samples and skin biopsies were taken from each dog on Day 1 and Day 28 of drug administration. The plasma and skin samplings were performed at pre-dose, and at 2, 6, 12, and 24 hours post-dose. Plasma and skin samples were also taken intermittently at predetermined intervals during the 28-days dosing period and up to the last day of the study, which was Day 42. Blood samples were taken from v. cephalica antebrachii. Skin biopsies were taken from the area between the mid ventral to lateral abdominal areas, using a 6 mm skin biopsy punch. Subcutaneous fat deposits were carefully trimmed from the skin samples and the skin samples were then weighed. All plasma and skin samples were analyzed using LC/MS/MS methodology.

Compound | Pruritic Bouts Mean ± SEM [12] | Protection [12] | AUC∞ Plasma [13] | MRT Plasma [13] | T1/2 Plasma [13] | AUC∞ Skin [13] | MRT Skin [13] | T1/2 Skin [13] | further results
CN1CCC(=C2c3ccccc3CC(=O)c3sccc32)CC1 [Ketotifen, ketotifen, reference compound] |  |  |  |  |  |  |  |  | inhibition at 10 µM [1]: 0%; inhibition at 10 µM [2]: 0%; inhibition at 10 µM [3]: 0%; inhibition at 10 µM [4]: 0%; inhibition at 10 µM [5]: 0%; inhibition at 10 µM [6]: 20%; inhibition at 10 µM [7]: 0%; inhibition at 10 µM [8]: 0%; inhibition at 10 µM [9]: 0%; Inhibition of release of cytokines and chemokines from human white blood cells (in words) [10]: No statistically significant inhibition
O=C(O)C=CC(=O)O.O=C1Cc2ccccc2C(=C2CCNCC2)c2ccsc21 [NK-HF, RS-norketotifen hydrogen fumarate] | 93 ± 10 | 54% |  |  |  |  |  |  | Skin irritation (erythema, edema, eschar) ([11]; 5% in creamy PEG formulation): did not induce any irritation; Skin irritation (erythema, edema, eschar) ([11]; 10% in creamy PEG formulation): did not induce any irritation
CNS(=O)(=O)C[C@H]1CC[C@H](N(C)c2ncnc3[nH]ccc23)CC1 [Oclacitinib maleate, Oclacitinib, reference compound] | 116 ± 29 | 43% |  |  |  |  |  |  | 
O=C(O)/C=C/C(=O)O.O=C1Cc2ccccc2C(=C2CCNCC2)c2ccsc21 [R-NK, R-norketotifen] |  |  | 1658 ng*hr/mL or g | 14.1 h | 7.7 h | 20376 ng*hr/mL or g | 159.1 h | 157.0 h | 
O=C1Cc2ccccc2C(=C2CCNCC2)c2ccsc21 [S-NK, S-norketotifen] |  |  | 1627 ng*hr/mL or g | 11.3 h | 10.9 h | 25710 ng*hr/mL or g | 159.0 h | 162.7 h | Racemization after oral administration of the single isomer ([13]; dogs, oral): RS-norketotifen was rapidly formed
